Experimental data taken from patent US8377915B2, “Methods for treating or preventing disorders using ecdysteroid compositions” (Rutgers, The State University of New Jersey, priority 2006, dated 2013).

Assays:
Format in all cases: cell-based
[1] = test system: TM3 mouse Leydig cell line; experiment: cDNA microarray comparison of transcription, 20HE vs methandrostenolone, TM3 cells; conditions: 18 hours
Protocol: (§1) A transcriptome approach utilizing cDNA microarray was implemented to observe the unique effects of ecdysteroids. Microarray analyses was developed and implemented to discern the transcriptional differences between ecdysteroids and anabolic steroids.
(§2) A mouse Leydig cell line, TM3, (ATCC) was seeded between 5 and 20 passages at a density of 10^5 cells/cm^2 onto 10 cm tissue culture plates. The cells were grown in F12/DME media supplemented with 5% horse serum, 2.5% fetal bovine serum, 100 U/ml penicillin, and 100 μg/ml streptomycin.
(§3) Cells were grown for 48 hours in 5% CO2 at 37° C. until they approached 80% confluency. Cells were washed with serum free DMEM and treated with either 1 μM […] (20HE), or methandrostenolone (synthetic anabolic steroid). Both compounds were dissolved in 70% ethanol and added to serum free media. Cells were incubated after treatment for 18 hours before RNA extraction.
(§4) RNA was extracted and purified from C2C12 myoblasts and TM3 Leydig tumor line cells using an RNeasy kit according to the manufacturer's instructions (Qiagen). RNA concentration and purity were assessed using a spectrophotometer. All RNA samples used had 260/280 ratios greater than 1.9.
(§5) A collection of 21,900 oligonucleotides was purchased from Compugen, Inc. Microarrays were printed on poly-L-lysine-coated glass slides using an OmniGrid microarrayer (GeneMachines, San Carlos, Calif.) and quill-type printing pins (Telichem, Sunnyvale, Calif.) following standard procedures. Fluorescent probes were prepared from 5 μg of total cellular RNA using the Genisphere 3DNA dendrimer system (Genisphere, Inc., Montvale, N.J.). Two separate microarrays, one for each cell line, were run. The ecdysone treated RNA sample was labeled with Cy3 and the methandrostenelone treated RNA sample was labeled with Cy5 in a parallel reaction, mixed, and hybridized to the chips. Automated microarray hybridization and washing were performed using a Ventana Discovery System. The sequence-tagged target was hybridized for 12 hours at 58° C., and microarrays were washed twice in […] for 10 minutes at 55° C. and once in […] for 2 minutes at 42° C. Florescent dendrimer was then applied and incubated at 55° C. for 2 hours. The microarrays were then washed with […] and spin-dried, followed by scanning on an Axon GenePix 4000B. Image files were processed using Axon GenePix 4.0 software, resulting in text files containing median fluorescence intensities as well as median local backgrounds. Normalized data were imported along with spot flag information into GeneSpring where the ratios were calculated.

[2] = test system: mouse growth hormone; experiment: Real Time RT-PCR of growth hormone expression in TM3 cells; conditions: for effect on growth hormone expression (in words): TM3; for Growth Hormone Expression relative to Control: TM3, 1 μM; for change in growth hormone expression over time (in words): TM3, treated 20 minutes to 24 hours
Protocol: as §2, §3
(§6) Selected microarray results were verified by comparison with mRNA levels obtained by Real Time reverse transcription PCR (qRT-PCR). Selected gene-specific primer pairs were designed for the mouse growth hormone and glyceraldehyde-3-phosphate dehydrogenase genes using the Primer Express software, as shown in Table 3. Total RNA was isolated, DNase I-treated, and first-strand cDNA was synthesized using Stratascript reverse transcriptase with random primers. The PCR reactions were carried out using 500 ng of cDNA, 150 nM of each primer, and SYBR Green master mix in 25 μL reactions. Levels of quantitative reverse transcription product were measured using SYBR Green fluorescence collected during real-time PCR on a Stratagene MXP3000 sequence detection system. A control cDNA dilution series was created for each gene to establish a standard curve. Reverse transcriptase was excluded from control samples to identify potential genomic contamination. Each reaction was subjected to melting point analysis to confirm single amplified products. The data generated from each PCR were analyzed using MXP 3000 software.
(§7) Quantitative real time PCR was used to verify the microarray results for growth hormone. RNA samples from each treatment were reverse-transcribed into cDNA and amplified using real time PCR. Values for growth hormone were normalized to values obtained for the housekeeping gene, glyceraldehyde-3-phosphate dehydrogenase, and the ratios of the two treatments were calculated. In both the C2C12 and TM3 cell lines differential expression was qualitatively confirmed.
(§8) Using the ΔΔCt method, relative expression was calculated.
To further investigate the effects of 20-HE, the TM3 leydig cell line was treated for varying intervals, from 20 minutes to 24 hours, with either 20-HE or methandrostenolone. Growth hormone expression was than analyzed using real time PCR as mentioned earlier.

[3] = test system: mouse growth hormone; experiment: Real Time RT-PCR of growth hormone expression in C2C12 cells; conditions: for effect on growth hormone expression (in words): C2C12; for Growth Hormone Expression relative to Control: C2C12, 1 μM, Real Time RT-PCR, normalized to GAPDH
Protocol: (§9) A mouse skeletal muscle cell line, C2C12, (ATCC) was seeded between 4 and 20 passages at a density of 10^5 cells/cm^2 onto 10 cm tissue culture plates. The cells were grown in DMEM supplemented with 10% Fetal Bovine Serum, 10 mM HEPES, 6 mM Glutamine, 1 mM pyruvate, 100 U/ml penicillin, and 100 ug/ml streptomycin.
as §3, §6, §7, §8

[4] = test system: C2C12 mouse skeletal muscle cell line; experiment: cDNA microarray comparison of transcription, 20HE vs methandrostenolone, C2C12 cells; conditions: 18 hours
Protocol: as §1, §9, §3, §4, §5

[5] = Real Time RT-PCR, normalized to GAPDH

## CC(C)(O)CC[C@@H](O)[C@](C)(O)[C@H]1CC[C@@]2(O)C3=CC(=O)[C@@H]4C[C@@H](O)[C@@H](O)C[C@]4(C)[C@H]3CC[C@]12C [20-Hydroxyecdysone, 20-hydroxyecdysone]
[1]; TM3, 1 μM, expression ratio 20HE to methandrostenolone, LL 14599
  20E/D Expr: Growth hormone: 7.006
[1]; TM3, 1 μM, expression ratio 20HE to methandrostenolone, LL 16334
  20E/D Expr: Insulin II: 0.262
[1]; TM3, 1 μM, expression ratio 20HE to methandrostenolone, LL 18227
  20E/D Expr: Nuclear receptor subfamily 4, group A, member 2: 0.010
[1]; TM3, 1 μM, expression ratio 20HE to methandrostenolone, LL 20297
  20E/D Expr: Chemokine (C-C motif) ligand 20: 11.89
[1]; TM3, 1 μM, expression ratio 20HE to methandrostenolone, LL 20846
  20E/D Expr: Signal transducer and activator of transcription 1: 0.052
[1]; TM3, 1 μM, expression ratio 20HE to methandrostenolone, LL 20905
  20E/D Expr: Steroid sulfatase: 4.611
[1]; TM3, 1 μM, expression ratio 20HE to methandrostenolone, LL 23920
  20E/D Expr: Insulin receptor-related receptor: 0.022
[1]; TM3, 1 μM, expression ratio 20HE to methandrostenolone, LL 27047
  20E/D Expr: Osteomodulin: 0.010
[1]; TM3, 1 μM, expression ratio 20HE to methandrostenolone, LL 68349
  20E/D Expr: Ndufs3: 4.741
[1]; TM3, microarray, 1 μM
  genes down-regulated more than 2 fold as compared to methandrostenolone: 341 genes
  genes up-regulated more than 2 fold as compared to methandrostenolone: 287 genes
  increase of growth hormone expression more than methandrostenolone: 7.0 times
[2]
  effect on growth hormone expression (in words): increased expression of GH
  change in growth hormone expression over time (in words): increased growth hormone expression over time, beginning after 45 minute and remaining increased after 24 hours
[2]; [5]
  Growth Hormone Expression relative to Control: 7.1 ± 1.2
[2]; incubation time 20 m
  Growth Hormone Expression relative to Control: 0.9
[2]; incubation time 45 m
  Growth Hormone Expression relative to Control: 3.5
[2]; incubation time 1 hr
  Growth Hormone Expression relative to Control: 7.3
[2]; incubation time 2 hr
  Growth Hormone Expression relative to Control: 6.9
[2]; incubation time 4 hr
  Growth Hormone Expression relative to Control: 7.2
[2]; incubation time 24 hr
  Growth Hormone Expression relative to Control: 7
[3]
  effect on growth hormone expression (in words): increased expression of GH
  Growth Hormone Expression relative to Control: 3.9 ± 0.9
[4]; C2C12, 1 μM, expression ratio 20HE to methandrostenolone, LL 11747
  20E/D Expr: Annexin A5: 11.90
[4]; C2C12, 1 μM, expression ratio 20HE to methandrostenolone, LL 12424
  20E/D Expr: Cholecystokinin: 0.010
[4]; C2C12, 1 μM, expression ratio 20HE to methandrostenolone, LL 13163
  20E/D Expr: Fas death domain-associated protein: 0.010
[4]; C2C12, 1 μM, expression ratio 20HE to methandrostenolone, LL 14166
  20E/D Expr: Fibroblast growth factor 11: 0.010
[4]; C2C12, 1 μM, expression ratio 20HE to methandrostenolone, LL 14599
  20E/D Expr: Growth hormone: 3.163
[4]; C2C12, 1 μM, expression ratio 20HE to methandrostenolone, LL 14964
  20E/D Expr: Histocompatibility 2, D region locus 1: 6.771
[4]; C2C12, 1 μM, expression ratio 20HE to methandrostenolone, LL 15277
  20E/D Expr: Hexokinase 2: 0.010
[4]; C2C12, 1 μM, expression ratio 20HE to methandrostenolone, LL 17149
  20E/D Expr: mago-nashi homolog, proliferation-associated: 3.708
[4]; C2C12, 1 μM, expression ratio 20HE to methandrostenolone, LL 23920
  20E/D Expr: Insulin receptor-related receptor: 0.020
[4]; C2C12, microarray, 1 μM
  genes down-regulated more than two fold as compared to methandrostenolone: 479 genes
  genes up-regulated more than 2-fold as compared to methandrostenolone: 278 genes
  increase of growth hormone expression more than methandrostenolone: 3.2 times

## C[C@]12C=CC(=O)C=C1CC[C@@H]1[C@@H]2CC[C@@]2(C)[C@H]1CC[C@]2(C)O [Methandrostenolone, methandrostenolone, reference compound]
[2]
  effect on growth hormone expression (in words): little or no effect
  change in growth hormone expression over time (in words): very little change
[2]; [5]
  Growth Hormone Expression relative to Control: 2.3 ± 1.4
[2]; incubation time 20 m
  Growth Hormone Expression relative to Control: 1.2
[2]; incubation time 45 m
  Growth Hormone Expression relative to Control: 1.9
[2]; incubation time 1 hr
  Growth Hormone Expression relative to Control: 2.5
[2]; incubation time 2 hr
  Growth Hormone Expression relative to Control: 1.7
[2]; incubation time 4 hr
  Growth Hormone Expression relative to Control: 2.1
[2]; incubation time 24 hr
  Growth Hormone Expression relative to Control: 2.3
[3]
  effect on growth hormone expression (in words): little or no effect
  Growth Hormone Expression relative to Control: 0.8 ± 0.5
